≈ marks a conversion by molar mass, not a printed value. Counter-ions that a name gives are not always drawn. Blank lines part the entries; values can stand above or below the compound they belong to.
Legend:
[1] = Selectivity index, ratio of CC50 for cytotoxicity against MDBK cells to EC50 for antiviral activity against bovine viral diarrhea virus 1 infected in MDBK cells; format: toxicity, cell-based; settings: cattle, read-out: Ratio CC50/EC50
[2] = system: Bovine viral diarrhea virus 1; test: Antiviral activity against bovine viral diarrhea virus 1 infected in MDBK cells assessed as reduction in viral replication-induced cell destruction incubated for 3 days; format: functional, organism-based; settings: Bovine viral diarrhea virus isolates and strains, 72 h
[3] = molecular target: T1, Glutamate receptor ionotropic, NMDA 2B (Homo sapiens, UniProt Q05586+Q13224); test: Displacement of [3H]ifenprodyl from NMDA receptor NR2B subunit (unknown origin)
T1 sequence (Q13224 whole entry, one chain of several): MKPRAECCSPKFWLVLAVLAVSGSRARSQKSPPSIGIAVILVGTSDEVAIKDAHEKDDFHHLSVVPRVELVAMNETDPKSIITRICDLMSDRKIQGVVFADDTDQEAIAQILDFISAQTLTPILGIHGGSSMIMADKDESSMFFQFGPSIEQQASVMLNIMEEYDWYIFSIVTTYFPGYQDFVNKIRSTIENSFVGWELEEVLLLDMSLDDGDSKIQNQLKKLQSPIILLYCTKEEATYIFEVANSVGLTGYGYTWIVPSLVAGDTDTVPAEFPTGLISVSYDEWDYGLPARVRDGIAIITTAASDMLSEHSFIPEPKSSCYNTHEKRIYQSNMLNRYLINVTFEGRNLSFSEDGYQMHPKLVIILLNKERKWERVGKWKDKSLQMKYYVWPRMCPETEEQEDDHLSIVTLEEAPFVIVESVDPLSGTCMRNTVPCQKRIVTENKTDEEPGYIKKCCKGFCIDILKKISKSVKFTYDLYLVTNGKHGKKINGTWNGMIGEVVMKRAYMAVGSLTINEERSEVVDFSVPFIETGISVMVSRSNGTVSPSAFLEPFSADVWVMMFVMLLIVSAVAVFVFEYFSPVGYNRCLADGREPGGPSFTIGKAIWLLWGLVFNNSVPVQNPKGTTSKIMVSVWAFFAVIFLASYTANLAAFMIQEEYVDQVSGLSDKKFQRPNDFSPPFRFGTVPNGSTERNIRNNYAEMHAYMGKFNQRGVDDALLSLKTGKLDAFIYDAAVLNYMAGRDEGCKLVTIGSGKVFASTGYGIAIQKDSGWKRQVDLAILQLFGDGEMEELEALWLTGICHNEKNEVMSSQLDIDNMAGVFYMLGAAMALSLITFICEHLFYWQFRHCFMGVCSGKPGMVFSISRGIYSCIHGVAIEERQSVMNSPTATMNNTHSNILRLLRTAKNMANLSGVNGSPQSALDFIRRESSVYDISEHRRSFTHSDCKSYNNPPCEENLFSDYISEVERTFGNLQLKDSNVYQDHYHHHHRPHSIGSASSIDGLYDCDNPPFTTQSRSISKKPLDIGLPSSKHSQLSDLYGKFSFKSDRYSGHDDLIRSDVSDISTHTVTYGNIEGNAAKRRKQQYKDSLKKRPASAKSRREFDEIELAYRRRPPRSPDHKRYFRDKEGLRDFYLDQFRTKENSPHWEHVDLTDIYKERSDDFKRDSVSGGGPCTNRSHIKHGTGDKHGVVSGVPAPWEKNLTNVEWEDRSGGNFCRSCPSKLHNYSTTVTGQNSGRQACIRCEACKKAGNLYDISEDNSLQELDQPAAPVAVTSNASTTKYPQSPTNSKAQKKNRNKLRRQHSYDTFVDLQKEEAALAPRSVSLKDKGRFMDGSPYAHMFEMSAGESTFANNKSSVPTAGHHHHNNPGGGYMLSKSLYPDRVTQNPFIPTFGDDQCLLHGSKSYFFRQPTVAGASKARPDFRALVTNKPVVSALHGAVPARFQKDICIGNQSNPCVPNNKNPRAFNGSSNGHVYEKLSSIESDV

[4] = molecular target: T1, Glutamate receptor ionotropic, NMDA 2B; test: Displacement of [3H]MK801 from NMDA receptor NR2B subunit (unknown origin)
Cholinesterase [5] = molecular target: Cholinesterase (Homo sapiens, UniProt P06276); test: Inhibition of BChE (unknown origin)
Cholinesterase (Homo sapiens, UniProt P06276), sequence (P06276 whole entry): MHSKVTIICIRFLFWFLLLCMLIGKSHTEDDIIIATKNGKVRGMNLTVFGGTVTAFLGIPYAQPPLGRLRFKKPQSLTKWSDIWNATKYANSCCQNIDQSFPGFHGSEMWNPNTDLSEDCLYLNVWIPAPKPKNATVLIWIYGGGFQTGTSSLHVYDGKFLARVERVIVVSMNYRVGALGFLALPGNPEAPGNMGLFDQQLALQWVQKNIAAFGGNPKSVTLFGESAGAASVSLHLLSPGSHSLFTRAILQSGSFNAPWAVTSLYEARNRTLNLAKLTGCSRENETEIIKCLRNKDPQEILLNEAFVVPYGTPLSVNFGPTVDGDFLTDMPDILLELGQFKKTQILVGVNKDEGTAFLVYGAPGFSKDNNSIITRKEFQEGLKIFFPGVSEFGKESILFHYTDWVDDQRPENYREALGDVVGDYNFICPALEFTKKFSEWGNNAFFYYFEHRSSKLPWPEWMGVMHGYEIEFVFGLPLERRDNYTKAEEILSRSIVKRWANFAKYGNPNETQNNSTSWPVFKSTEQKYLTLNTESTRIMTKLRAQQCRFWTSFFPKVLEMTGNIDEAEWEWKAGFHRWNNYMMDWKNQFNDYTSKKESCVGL

[6] = molecular target: Glutamate [NMDA] receptor; test: Displacement of [3H]ifenprodyl from NMDA receptor (unknown origin); format: protein-complex assay, Homo sapiens
Cholinesterase [7] = molecular target: Cholinesterase (Equus caballus, UniProt P81908); test: Inhibition of horse serum BChE incubated for 10 mins by Ellman's method; format: cell-free
Cholinesterase (Equus caballus, UniProt P81908), sequence (P81908 whole entry): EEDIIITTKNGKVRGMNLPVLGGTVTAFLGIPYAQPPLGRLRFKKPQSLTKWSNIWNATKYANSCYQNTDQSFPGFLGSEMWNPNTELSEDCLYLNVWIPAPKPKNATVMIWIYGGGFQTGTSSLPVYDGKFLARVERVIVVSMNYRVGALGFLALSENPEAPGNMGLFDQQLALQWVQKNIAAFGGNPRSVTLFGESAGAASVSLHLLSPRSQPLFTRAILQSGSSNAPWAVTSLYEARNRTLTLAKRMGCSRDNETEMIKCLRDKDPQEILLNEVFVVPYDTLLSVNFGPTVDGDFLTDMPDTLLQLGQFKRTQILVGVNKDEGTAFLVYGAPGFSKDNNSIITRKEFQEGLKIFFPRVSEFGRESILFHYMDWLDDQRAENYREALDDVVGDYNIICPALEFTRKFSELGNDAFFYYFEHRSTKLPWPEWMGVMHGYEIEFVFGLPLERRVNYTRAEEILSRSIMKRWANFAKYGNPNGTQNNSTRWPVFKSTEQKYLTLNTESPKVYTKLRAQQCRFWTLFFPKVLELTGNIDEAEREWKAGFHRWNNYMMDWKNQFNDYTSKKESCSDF

Acetylcholinesterase = Acetylcholinesterase (Homo sapiens, UniProt P22303); test: Inhibition of human erythrocyte AChE incubated for 10 mins by Ellman's method; format: cell-based
Acetylcholinesterase, sequence (P22303 whole entry): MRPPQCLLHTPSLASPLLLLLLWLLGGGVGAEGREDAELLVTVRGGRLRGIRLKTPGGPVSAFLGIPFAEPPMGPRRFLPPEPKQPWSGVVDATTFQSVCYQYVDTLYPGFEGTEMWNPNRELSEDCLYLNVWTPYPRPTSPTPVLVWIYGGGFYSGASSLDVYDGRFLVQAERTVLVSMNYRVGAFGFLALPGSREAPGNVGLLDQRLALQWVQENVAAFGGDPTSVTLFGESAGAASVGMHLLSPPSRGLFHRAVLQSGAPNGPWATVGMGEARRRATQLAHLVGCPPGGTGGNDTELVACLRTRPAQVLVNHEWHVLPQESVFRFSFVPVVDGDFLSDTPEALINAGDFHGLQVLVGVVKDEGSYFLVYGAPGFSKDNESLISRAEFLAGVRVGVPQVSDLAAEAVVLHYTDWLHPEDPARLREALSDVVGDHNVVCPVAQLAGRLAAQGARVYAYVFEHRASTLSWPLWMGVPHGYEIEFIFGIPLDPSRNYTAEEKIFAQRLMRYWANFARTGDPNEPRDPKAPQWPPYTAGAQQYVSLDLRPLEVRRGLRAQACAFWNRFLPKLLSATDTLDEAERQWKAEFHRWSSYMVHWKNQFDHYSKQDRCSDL

L5178Y = test: Cytotoxicity against mouse L5178Y cells; format: functional, cell-based
Escherichia coli = test: Antibacterial activity against Escherichia coli assessed as inhibition of bacterial growth incubated for 24 hrs by agar diffusion assay; format: functional, organism-based

Compound: c1ccc2c(c1)[nH]c1ccncc12
- selectivity ratio [1]: 20

- EC50 [2]: 0.0035 µM
Compound: Cc1ncc2c3ccccc3n(C)c2c1C
- selectivity ratio [1]: 2060

- IC50 [3]: 8.8 µM
- IC50 [4]: 15.8 µM
Compound: CCN1CCc2c(c3cc(F)ccc3n2CCC(=O)N2c3ccccc3Sc3ccccc32)C1

- IC50 [3]: 13.4 µM
- IC50 [4]: 14.6 µM
Compound: CCN1CCc2c(c3ccccc3n2CCC(=O)N2c3ccccc3Sc3ccccc32)C1

Compound: Cc1ccc2c(c1)c1c(n2CC(O)Cn2c3c(c4ccccc42)CCCC3)CCN(C)C1 (stereo unspecified)
- IC50 (Cholinesterase [5]): 3.9 µM

Compound: CN1CCc2c(c3cc(F)ccc3n2CC(O)Cn2c3c(c4ccccc42)CCCC3)C1 (stereo unspecified)
- IC50 (Cholinesterase [5]): 5.03 µM

Compound: CCN1CCc2c(c3cc(C)ccc3n2CC(O)Cn2c3c(c4ccccc42)CCCC3)C1 (stereo unspecified)
- IC50 (Cholinesterase [5]): 5.23 µM

- IC50 [6]: 11.7 µM
Compound: Cc1ccc2c(c1)c1c(n2CC(O)Cn2c3ccccc3c3ccccc32)CCN(C)C1 (stereo unspecified)

- IC50 [3]: 15.4 µM
- IC50 [4]: 13.2 µM
Compound: CCc1ccc2c(c1)c1c(n2CCC(=O)N2c3ccccc3Sc3ccccc32)CCN(C)C1

- IC50 [3]: 39.5 µM
Compound: CCN1CCc2c(c3cc(C)ccc3n2-c2c(C(F)(F)F)nc3ccccn23)C1

- IC50 [6]: 12.5 µM
Compound: CCN1CCc2c(c3cc(C)ccc3n2CC(O)Cn2c3ccccc3c3ccccc32)C1 (stereo unspecified)

Compound: CN1CCc2c(c3ccccc3n2CC(O)Cn2c3c(c4ccccc42)CCCC3)C1 (stereo unspecified)
- IC50 (Cholinesterase [5]): 1.06 µM

- IC50 [3]: 32.6 µM
Compound: Cc1ccc2c(c1)c1c(n2CCC(=O)N(C)c2c(C(F)(F)F)nc3cc(C)ccn23)CCN(C)C1

Compound: CCN1CCc2c(c3cc(F)ccc3n2CC(O)Cn2c3c(c4ccccc42)CCCC3)C1 (stereo unspecified)
- IC50 (Cholinesterase [5]): 5.83 µM

Compound: CN1CCc2c(c3ccccc3n2Cc2ccccc2C(=O)NCCO[N+](=O)[O-])C1
- IC50 (Cholinesterase [7]): 3.68 µM
- IC50 (Acetylcholinesterase): 14.8 µM

Compound: COc1ccc2c(c1)c1c(n2CC(O)CN2c3ccccc3Sc3ccccc32)CCN(C)C1 (stereo unspecified)
- IC50 (Cholinesterase [5]): 0.39 µM

Compound: Nc1nccc(-c2cncc3c2[nH]c2ccccc23)n1
- EC50 (L5178Y): 9.1 mg/L (≈ 34.8 µM)

Compound: CCN1CCc2c(c3ccccc3n2CC(O)Cn2c3c(c4ccccc42)CCCC3)C1 (stereo unspecified)
- IC50 (Cholinesterase [5]): 2.77 µM

Compound: Cn1cc2c3ccccc3n(C)c2c(Cc2ccccc2Cl)c1=O
- IC50 (Escherichia coli): 17 µM

- IC50 [3]: 82.4 µM
Compound: Cc1ccc2c(c1)c1c(n2CCc2ccc(C)nc2)CCN(C)C1 [LATREPIRDINE]

Compound: CN(C)[C@@H]1C(O)=C(C(N)=O)C(=O)[C@@]2(O)C(O)=C3C(=O)c4c(O)cccc4[C@@](C)(O)[C@H]3C[C@@H]12 [TETRACYCLINE HYDROCHLORIDE]
- IC50 (Escherichia coli): 30 µM

— ChEMBL document CHEMBL5252549, “Recent developments on synthesis and biological activities of γ-carboline” (Eur J Med Chem, 2018)
